The test system of one data set is HL-60. The experiment in a line: Antiproliferative activity against human […] assessed as cell growth inhibition measured for 72 hrs by MTT assay. Type of data set: functional, cell-based. The following applies: HL-60, 72 h.
The target in data set [1] is Menin/Histone-lysine N-methyltransferase MLL (Homo sapiens, UniProt O00255). Description: Inhibition of Menin/fluorescein labeled MLL(4 to 43 residues) (unknown origin) protein protein interaction incubated for 1 hr by fluorescence polarization-based competitive binding assay. (Polarisation of emitted light reports the rotation of a fluorescent probe.)
Data set [2] relates to MV4-11. The experiment in a line: Antiproliferative activity against human MV4-11 cells harboring MLL-AF4 assessed as cell growth inhibition measured for 72 hrs by MTT assay. Type of data set: functional, cell-based. Particulars: MV4-11, 72 h. On the technique in general: Tetrazolium dyes change colour on reduction, which living cells bring about.
The nature of data set [3]: Solubility of compound in phosphate buffer at pH 7.4 by spectrophotometric analysis. Type of data set: physicochemical.
For data set [4], the system named is MV4-11. Description: Induction of apoptosis in human MV4-11 cells incubated for 24 hrs by annexinV/PI staining based flow cytometry analysis. Type of data set: functional, cell-based. The following applies: dose 0.1-10 µM, DDE = dose-dependent effect. (A flow cytometer gives signals particle by particle.)
For data set [5], the system named is MV4-11. Description: Induction of cell differentiation in human MV4-11 cells assessed as increase in CD11b expression at 10 uM measured after 7 days by flow cytometric analysis. Type of data set: functional, cell-based. The following applies: time 7.0 day.
Data set [6] deals with MV4-11. Description: Reversible differentiation arrest in human MV4-11 cells at 0.1 to 10 uM measured after 7 days by flow cytometric analysis. Particulars: dose 0.1-10 µM, time 7.0 day. It is filed as functional, cell-based.
The subject of data set [7] is MV4-11. Description: Antiproliferative activity against human MV4-11 cells assessed as reduction in cell viability measured for 3 days followed by replacement with fresh medium of compound and measured after 72 hrs by cell counting assay. Type of data set: functional, cell-based. Particulars: MV4-11, 72 h.
Data set [8] relates to MV4-11. The experiment in a line: Antiproliferative activity against human MV4-11 cells assessed as reduction in cell viability measured for 3 days by cell counting assay. It is filed as functional, cell-based. Particulars: MV4-11, 72 h.

Each structure is given as a SMILES string. ≈ marks a conversion by molar mass, not a printed value. Calls of active or inactive are those of the source. The calls are words filed in the database; no cut-off is given here.

As a reminder, the IC50 is the concentration that inhibits the measured activity by half. What is called solubility is how much of the substance goes into solution per volume. Lower therefore signals little dissolved substance.

Sequence of Menin/Histone-lysine N-methyltransferase MLL (O00255 whole entry, the tested form may be a part): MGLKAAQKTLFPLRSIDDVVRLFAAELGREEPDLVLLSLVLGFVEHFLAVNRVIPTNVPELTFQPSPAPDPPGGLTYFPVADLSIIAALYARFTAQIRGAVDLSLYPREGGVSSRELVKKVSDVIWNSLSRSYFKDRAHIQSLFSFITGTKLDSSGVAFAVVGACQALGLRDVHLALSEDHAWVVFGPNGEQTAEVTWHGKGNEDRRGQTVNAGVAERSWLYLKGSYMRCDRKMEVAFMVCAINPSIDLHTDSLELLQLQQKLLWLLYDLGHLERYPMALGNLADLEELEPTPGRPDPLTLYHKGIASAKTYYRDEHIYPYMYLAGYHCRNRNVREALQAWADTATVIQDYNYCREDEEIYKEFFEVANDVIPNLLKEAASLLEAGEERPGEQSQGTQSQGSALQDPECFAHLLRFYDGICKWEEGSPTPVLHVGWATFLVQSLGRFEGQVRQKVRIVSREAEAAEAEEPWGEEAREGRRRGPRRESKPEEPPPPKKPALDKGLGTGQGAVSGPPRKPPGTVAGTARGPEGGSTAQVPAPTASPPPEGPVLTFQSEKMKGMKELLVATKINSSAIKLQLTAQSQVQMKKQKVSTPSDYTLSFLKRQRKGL
Sequence of Menin/Histone-lysine N-methyltransferase MLL (Q03164 1-2718 partner limits assumed): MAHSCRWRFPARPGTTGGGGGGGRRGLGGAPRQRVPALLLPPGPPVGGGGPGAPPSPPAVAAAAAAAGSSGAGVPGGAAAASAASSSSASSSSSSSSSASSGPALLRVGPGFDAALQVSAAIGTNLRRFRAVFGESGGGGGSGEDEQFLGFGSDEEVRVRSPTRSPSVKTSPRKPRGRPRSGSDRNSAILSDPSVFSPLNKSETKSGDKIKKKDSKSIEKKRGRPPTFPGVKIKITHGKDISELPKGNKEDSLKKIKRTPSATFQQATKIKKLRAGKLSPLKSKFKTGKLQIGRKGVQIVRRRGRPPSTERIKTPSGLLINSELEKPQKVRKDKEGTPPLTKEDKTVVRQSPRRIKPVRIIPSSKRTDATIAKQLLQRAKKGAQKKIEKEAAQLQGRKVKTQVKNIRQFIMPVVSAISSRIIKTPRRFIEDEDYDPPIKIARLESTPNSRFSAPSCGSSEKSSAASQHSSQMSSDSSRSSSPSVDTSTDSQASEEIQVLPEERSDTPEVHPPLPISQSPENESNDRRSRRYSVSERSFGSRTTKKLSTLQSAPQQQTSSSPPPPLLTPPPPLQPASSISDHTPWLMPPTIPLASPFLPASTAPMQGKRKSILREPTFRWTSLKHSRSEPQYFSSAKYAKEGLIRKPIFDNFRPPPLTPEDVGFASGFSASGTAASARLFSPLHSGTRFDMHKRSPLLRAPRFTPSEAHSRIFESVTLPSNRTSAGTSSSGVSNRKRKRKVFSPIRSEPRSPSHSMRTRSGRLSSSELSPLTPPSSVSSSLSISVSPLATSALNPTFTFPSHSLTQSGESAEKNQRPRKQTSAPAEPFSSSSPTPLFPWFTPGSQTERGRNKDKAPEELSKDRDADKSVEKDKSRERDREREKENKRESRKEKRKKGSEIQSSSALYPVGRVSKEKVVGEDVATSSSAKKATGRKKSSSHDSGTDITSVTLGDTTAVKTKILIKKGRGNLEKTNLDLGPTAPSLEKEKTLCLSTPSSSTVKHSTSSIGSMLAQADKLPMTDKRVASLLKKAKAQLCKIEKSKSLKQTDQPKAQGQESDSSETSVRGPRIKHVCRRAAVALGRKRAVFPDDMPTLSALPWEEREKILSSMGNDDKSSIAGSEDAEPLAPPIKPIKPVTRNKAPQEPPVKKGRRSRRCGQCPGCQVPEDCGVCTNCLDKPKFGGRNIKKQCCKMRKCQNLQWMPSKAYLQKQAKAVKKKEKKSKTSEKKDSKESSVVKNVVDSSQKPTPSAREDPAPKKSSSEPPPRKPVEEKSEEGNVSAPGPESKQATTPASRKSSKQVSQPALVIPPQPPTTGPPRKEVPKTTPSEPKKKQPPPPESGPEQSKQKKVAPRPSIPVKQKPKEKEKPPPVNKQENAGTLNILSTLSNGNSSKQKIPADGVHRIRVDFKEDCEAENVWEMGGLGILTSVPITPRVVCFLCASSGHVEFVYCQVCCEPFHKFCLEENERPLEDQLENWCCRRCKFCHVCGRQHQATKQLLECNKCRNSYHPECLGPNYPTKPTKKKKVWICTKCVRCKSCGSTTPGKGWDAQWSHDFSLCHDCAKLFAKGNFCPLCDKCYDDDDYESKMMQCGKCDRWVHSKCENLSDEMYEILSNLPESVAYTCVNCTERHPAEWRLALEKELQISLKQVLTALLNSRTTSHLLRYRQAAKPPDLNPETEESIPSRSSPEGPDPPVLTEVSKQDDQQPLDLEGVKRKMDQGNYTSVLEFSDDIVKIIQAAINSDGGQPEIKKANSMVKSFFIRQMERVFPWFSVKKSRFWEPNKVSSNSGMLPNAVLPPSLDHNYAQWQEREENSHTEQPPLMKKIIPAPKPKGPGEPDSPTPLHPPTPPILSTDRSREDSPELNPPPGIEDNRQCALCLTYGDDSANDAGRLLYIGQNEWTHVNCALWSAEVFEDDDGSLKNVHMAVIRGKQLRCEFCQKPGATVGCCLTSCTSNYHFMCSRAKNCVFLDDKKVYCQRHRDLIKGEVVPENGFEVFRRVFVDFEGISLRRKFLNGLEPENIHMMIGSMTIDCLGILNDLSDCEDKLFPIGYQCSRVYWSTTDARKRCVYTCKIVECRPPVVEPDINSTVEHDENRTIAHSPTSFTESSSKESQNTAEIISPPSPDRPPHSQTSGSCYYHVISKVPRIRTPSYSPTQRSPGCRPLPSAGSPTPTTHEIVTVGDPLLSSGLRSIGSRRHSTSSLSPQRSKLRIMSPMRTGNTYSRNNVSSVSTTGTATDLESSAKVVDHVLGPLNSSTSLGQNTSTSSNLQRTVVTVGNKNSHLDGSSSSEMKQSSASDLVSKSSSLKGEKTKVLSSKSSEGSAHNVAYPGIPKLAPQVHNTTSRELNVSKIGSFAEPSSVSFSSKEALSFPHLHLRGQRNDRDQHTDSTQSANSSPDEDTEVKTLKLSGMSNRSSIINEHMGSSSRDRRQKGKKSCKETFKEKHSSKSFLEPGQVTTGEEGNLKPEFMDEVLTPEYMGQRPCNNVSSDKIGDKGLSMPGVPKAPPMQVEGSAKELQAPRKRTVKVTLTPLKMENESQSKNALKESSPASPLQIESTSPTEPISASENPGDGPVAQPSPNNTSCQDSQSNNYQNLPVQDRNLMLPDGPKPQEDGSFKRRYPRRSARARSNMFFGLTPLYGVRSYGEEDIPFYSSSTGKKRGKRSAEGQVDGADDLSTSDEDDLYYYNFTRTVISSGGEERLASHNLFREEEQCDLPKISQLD
Sequence of Menin/Histone-lysine N-methyltransferase MLL (Q03164 2719-3969 partner limits assumed): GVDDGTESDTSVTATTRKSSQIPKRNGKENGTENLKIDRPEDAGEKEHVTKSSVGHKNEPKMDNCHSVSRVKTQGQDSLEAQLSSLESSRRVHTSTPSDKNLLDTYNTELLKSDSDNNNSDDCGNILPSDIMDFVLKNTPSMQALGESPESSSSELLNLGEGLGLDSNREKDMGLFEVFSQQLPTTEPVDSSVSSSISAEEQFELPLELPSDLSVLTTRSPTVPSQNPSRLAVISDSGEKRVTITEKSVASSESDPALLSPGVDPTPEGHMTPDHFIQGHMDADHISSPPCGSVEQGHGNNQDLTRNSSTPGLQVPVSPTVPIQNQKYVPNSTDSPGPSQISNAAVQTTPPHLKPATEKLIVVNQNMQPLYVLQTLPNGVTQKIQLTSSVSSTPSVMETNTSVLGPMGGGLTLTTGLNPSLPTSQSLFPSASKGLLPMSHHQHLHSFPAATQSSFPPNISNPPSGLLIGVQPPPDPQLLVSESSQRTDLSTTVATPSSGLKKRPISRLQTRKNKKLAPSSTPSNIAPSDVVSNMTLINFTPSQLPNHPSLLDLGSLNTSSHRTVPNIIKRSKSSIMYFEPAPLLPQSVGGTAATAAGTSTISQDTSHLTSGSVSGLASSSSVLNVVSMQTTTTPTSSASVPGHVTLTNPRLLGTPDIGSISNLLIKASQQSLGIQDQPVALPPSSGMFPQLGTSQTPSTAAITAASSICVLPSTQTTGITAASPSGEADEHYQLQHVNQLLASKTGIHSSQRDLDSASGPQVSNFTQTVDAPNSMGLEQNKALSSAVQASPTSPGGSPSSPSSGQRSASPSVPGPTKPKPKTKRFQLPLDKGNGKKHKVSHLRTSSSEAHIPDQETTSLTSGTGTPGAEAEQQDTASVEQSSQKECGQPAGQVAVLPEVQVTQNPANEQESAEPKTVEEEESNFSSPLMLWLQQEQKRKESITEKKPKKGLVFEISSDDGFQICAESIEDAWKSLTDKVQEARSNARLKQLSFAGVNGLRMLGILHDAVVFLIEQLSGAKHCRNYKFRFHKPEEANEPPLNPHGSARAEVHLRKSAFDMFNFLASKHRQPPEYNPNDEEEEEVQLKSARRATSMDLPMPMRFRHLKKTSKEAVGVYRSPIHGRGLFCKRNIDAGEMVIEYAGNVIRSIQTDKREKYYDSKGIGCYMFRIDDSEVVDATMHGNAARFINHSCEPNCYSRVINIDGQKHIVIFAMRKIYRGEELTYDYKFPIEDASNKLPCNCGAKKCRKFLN

Regarding `N#Cc1ccc(N2CC(CN3CCC(Nc4ncnc5cnc(NC6CC6)cc45)CC3)C2)cc1`, the IC50 (in the data set on HL-60; in [1]; in the data set on MV4-11 [2]) was above 10 µM in each case.
Take `N#Cc1ccc(N2CC(CN3CCC(Nc4ncnc5ccc(N6CCNCC6)nc45)CC3)C2)cc1`: the IC50 in the data set on HL-60 is above 10 µM; in data set [1], 0.18 µM; with MV4-11 [2] it was 2.2 µM.
For `N#Cc1ccc(N2CC(CN3CCC(Nc4ncnc5cnc(N6CCCC6)cc45)CC3)C2)cc1` the same measures were above 10 µM, above 10 µM and 6.5 µM.
The corresponding values for `N#Cc1ccc(N2CC(CN3CCC(Nc4ncnc5cnc(OCC(F)(F)F)cc45)CC3)C2)cc1` are above 10 µM, 0.69 µM and above 10 µM.
For `O=S(=O)(c1ccncc1)c1ccc(N2CC(CN3CCC(Nc4ncnc5ccc(Cl)nc45)CC3)C2)cc1`, the IC50 in the data set on HL-60 is 8.8 µM; in data set [1], 0.03 µM; in the data set on MV4-11 [2] it was 2 µM. For the same compound, in data set [3], the solubility was determined as 10 µg/mL (≈ 18.2 µM).
Regarding `N#Cc1ccc(N2CC(CN3CCC(Nc4ncnc5cnc(N6CCOCC6)cc45)CC3)C2)cc1`, the IC50 (in the data set on HL-60; in [1]; with MV4-11 [2]) was above 10 µM in each case.
As to `N#Cc1ccc(N2CC(CN3CCC(Nc4ncnc5cnc(NC6CCCC6)cc45)CC3)C2)cc1`, the IC50 in the data set on HL-60 was above 10 µM; in data set [1], 0.06 µM; in the data set on MV4-11 [2] it was above 10 µM.
Turning to `CC(C)(C)OC(=O)N1CC(S(=O)(=O)c2ccc(N3CC(CN4CCC(Nc5ncnc6ccc(Cl)nc56)CC4)C3)cc2)C1`, the results for the IC50 (in the data set with HL-60; in data set [1]; in the data set with MV4-11 [2]) were above 10 µM, 0.12 µM and 2.3 µM, respectively. Further, in data set [3], the solubility is below 0.6 µg/mL.
Take `N#Cc1ccc(N2CC(CN3CCC(Nc4ncnc5ccc(OCC(F)(F)F)nc45)CC3)C2)cc1`: the IC50 was above 10 µM in the data set with HL-60, above 10 µM in [1] and 5.6 µM in the data set on MV4-11 [2].
With `CCN(CC)CCNc1ccc2ncnc(NC3CCN(CC4CN(c5ccc(C#N)cc5)C4)CC3)c2n1`, the values for the IC50 (in the data set on HL-60; in data set [1]; in the data set on MV4-11 [2]) were 9.5 µM, 0.82 µM and 4.2 µM, respectively.
For `CN(C)C1CCN(c2cc3c(NC4CCN(CC5CN(c6ccc(C#N)cc6)C5)CC4)ncnc3cn2)CC1` the same measures were above 10 µM, above 10 µM and 3 µM.
`CN(C)CCOc1ccc2ncnc(NC3CCN(CC4CN(c5ccc(C#N)cc5)C4)CC3)c2n1`: the values for the IC50 (in the data set with HL-60; in data set [1]; in the data set on MV4-11 [2]) were above 10 µM, 0.06 µM and 1.5 µM, respectively. The same compound had a solubility in [3] of 314 µg/mL (≈ 645 µM).
Turning to `CCCc1cc2c(N3CCN(C4=NCC(C)(C)S4)CC3)ncnc2s1`, the Activity entry in the data set on MV4-11 [4] was “Dde”. The concentration for half-maximal inhibition (IC50) is above 10 µM with HL-60, 9.2 µM with MV4-11 [2], 7.62 µM with MV4-11 [7] and 8.52 µM in the data set with MV4-11 [8]. Further, the result in the data set on MV4-11 [5] and with MV4-11 [6] was Active.
For `N#Cc1ccc(N2CC(CN3CCC(Nc4ncnc5ccc(NCCO)nc45)CC3)C2)cc1`, the half-inhibitory concentration (IC50) (in the data set with HL-60; in [1]; in the data set with MV4-11 [2]) was above 10 µM throughout.
On to `N#Cc1ccc(N2CC(CN3CCC(Nc4ncnc5ccc(Br)cc45)CC3)C2)cc1`, for which the 50% inhibitory concentration (IC50) (in the data set on HL-60; in data set [1]; in the data set on MV4-11 [2]) was above 10 µM throughout.
In the case of `CC(C)(C)OC(=O)N1CC(S(=O)(=O)c2ccc(N3CC(CN4CCC(Nc5ncnc6cnc(Cl)cc56)CC4)C3)cc2)C1`, the IC50 (in the data set on HL-60; in data set [1]; in the data set with MV4-11 [2]) was above 10 µM in each case.
As to `N#Cc1ccc(N2CC(CN3CCC(Nc4ncnc5cnc(N6CCCCC6)cc45)CC3)C2)cc1`, the 50% inhibitory concentration (IC50) in the data set with HL-60 was above 10 µM; in data set [1] it was 0.59 µM; with MV4-11 [2], above 10 µM.
Regarding `O=S(=O)(c1ccc(N2CC(CN3CCC(Nc4ncnc5ccc(Cl)nc45)CC3)C2)cc1)c1ccccn1`, the concentration for half-maximal inhibition (IC50) in the data set with HL-60 was above 10 µM; in [1], 0.06 µM; in the data set with MV4-11 [2], 2.5 µM.
The corresponding values for `CCNCCNc1ccc2ncnc(NC3CCN(CC4CN(c5ccc(C#N)cc5)C4)CC3)c2n1` are above 10 µM, above 10 µM and above 10 µM.
The corresponding values for `CC(C)CNc1cc2c(NC3CCN(CC4CN(c5ccc(C#N)cc5)C4)CC3)ncnc2cn1` are above 10 µM, 1.97 µM and above 10 µM.
For the compound `CN(C)CCOc1ccc2ncnc(NC3CCN(CC4CN(c5ccc(S(=O)(=O)c6ccncc6)cc5)C4)CC3)c2n1`, the concentration for half-maximal inhibition (IC50) with HL-60 was above 10 µM; in data set [1], 0.01 µM; with MV4-11 [2], 1.5 µM. In addition, the solubility in [3] came to 153 µg/mL (≈ 254 µM).
With `N#Cc1ccc(N2CC(CN3CCC(Nc4ncnc5ccc(NCCN)nc45)CC3)C2)cc1`, the 50% inhibitory concentration (IC50) in the data set on HL-60 was above 10 µM; in [1], 0.68 µM; with MV4-11 [2] it was 9.8 µM.
`COC(CNc1ccc2ncnc(NC3CCN(CC4CN(c5ccc(C#N)cc5)C4)CC3)c2n1)OC`: the half-maximal inhibitory concentration (IC50) (with HL-60; in data set [1]; in the data set with MV4-11 [2]) was above 10 µM throughout.
As to `CN(C)CCNc1ccc2ncnc(NC3CCN(CC4CN(c5ccc(C#N)cc5)C4)CC3)c2n1`, the IC50 was above 10 µM with HL-60, 0.97 µM in [1] and 4.4 µM with MV4-11 [2].
For `CN1CCN(c2cc3c(NC4CCN(CC5CN(c6ccc(C#N)cc6)C5)CC4)ncnc3cn2)CC1` the same measures were above 10 µM, above 10 µM and 6.7 µM.
In the case of `CN(C)C1CCN(c2ccc3ncnc(NC4CCN(CC5CN(c6ccc(C#N)cc6)C5)CC4)c3n2)CC1`, the IC50 turned out to be 10.2 µM in the data set with HL-60, 0.13 µM in data set [1] and 9.8 µM with MV4-11 [2].
Consider `O=S(=O)(c1ccncc1)c1ccc(N2CC(CN3CCC(Nc4ncnc5cnc(Cl)cc45)CC3)C2)cc1`, for which the concentration for half-maximal inhibition (IC50) is above 10 µM with HL-60, above 10 µM in [1] and 9 µM in the data set with MV4-11 [2].
For `CN(C)CCN(C)C1CCN(c2cc3c(NC4CCN(CC5CN(c6ccc(C#N)cc6)C5)CC4)ncnc3cn2)CC1`, the half-inhibitory concentration (IC50) in the data set on HL-60 is above 10 µM; in data set [1], 0.29 µM; in the data set on MV4-11 [2] it was 3.5 µM.
The corresponding values for `N#Cc1ccc(N2CC(CN3CCC(Nc4ncnc5ccc(CC(F)(F)F)cc45)CC3)C2)cc1` are above 10 µM, above 10 µM and above 10 µM.
As for `O=S(=O)(c1ccc(N2CC(CN3CCC(Nc4ncnc5ccc(Cl)nc45)CC3)C2)cc1)C1CC1`, the IC50 with HL-60 was above 10 µM; in data set [1], 0.09 µM; with MV4-11 [2] it was 6.6 µM. The solubility in data set [3] is 15.9 µg/mL (≈ 31 µM).
As for `CC(C)Nc1cc2c(NC3CCN(CC4CN(c5ccc(C#N)cc5)C4)CC3)ncnc2cn1`, the IC50 was above 10 µM in the data set on HL-60, 0.53 µM in data set [1] and above 10 µM in the data set on MV4-11 [2].
With `N#Cc1ccc(N2CC(CN3CCC(Nc4ncnc5ccc(Cl)nc45)CC3)C2)cc1`, the IC50 (in the data set on HL-60; in data set [1]; with MV4-11 [2]) was above 10 µM throughout. Also, in data set [3], the solubility is below 0.4 µg/mL.
Turning to `CN(C)CCOc1ccc2ncnc(NC3CCN(CC4CN(c5ccc(S(=O)(=O)C6CN(C(=O)OC(C)(C)C)C6)cc5)C4)CC3)c2n1`, the IC50 in the data set with HL-60 is above 10 µM; in data set [1] it was 0.19 µM; with MV4-11 [2], 2 µM. The compound further yielded a solubility in data set [3] of 69.5 µg/mL (≈ 102 µM).
As to `N#Cc1ccc(N2CC(CN3CCC(Nc4ncnc5cnc(NCC6CC6)cc45)CC3)C2)cc1`, the IC50 (with HL-60; in [1]; with MV4-11 [2]) was above 10 µM throughout.
As to `N#Cc1ccc(N2CC(CN3CCC(Nc4ncnc5cnc(Cl)cc45)CC3)C2)cc1`, the 50% inhibitory concentration (IC50) (in the data set with HL-60; in data set [1]; in the data set with MV4-11 [2]) was above 10 µM each time.
`CN(C)CCN(C)c1ccc2ncnc(NC3CCN(CC4CN(c5ccc(C#N)cc5)C4)CC3)c2n1`: the half-maximal inhibitory concentration (IC50) in the data set on HL-60 is above 10 µM; in [1], 0.26 µM; in the data set on MV4-11 [2], 3.2 µM.
For `CN1CCN(c2ccc3ncnc(NC4CCN(CC5CN(c6ccc(C#N)cc6)C5)CC4)c3n2)CC1` the same measures were 10 µM, 0.07 µM and 5.6 µM.

The record behind these values is ChEMBL document CHEMBL5104196, “Discovery of Novel, Potent, and Selective Small-Molecule Menin-Mixed Lineage Leukemia Interaction Inhibitors through Attempting Introduction of Hydrophilic Groups” (J Med Chem, 2022).
